Reference: article PMC6409085, “Three odorant-binding proteins are involved in the behavioral response of Sogatella furcifera to rice plant volatiles” (PeerJ, 2019)
“And” between values parts separate entries of the source, which are not always exact repeats. Equal entries are not always repeated.

Key:
Test in all cases: biochemical
Type in all cases: binding
SfurOBP2 = SfurOBP2 (Sogatella furcifera, UniProt V5T759)
In short: (§1)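 Fluorescence competitive binding with 1-NPN as reporter: 2.0 µM protein and 2.0 µM 1-NPN in 50 mM Tris-HCl pH 7.4, odorant added at 2–20 µM final. Excitation 337 nm, emission 390–490 nm read 2 min after addition, triplicates. Ki = IC50/(1 + [1-NPN]/K1-NPN).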

SfurOBP1 = SfurOBP1 (Sogatella furcifera, UniProt V5T8N5); details: for Fluorescence competitive binding assay, fluorescence intensity: OBP1, three replicate columns
In short: as §1

SfurOBP11 = SfurOBP11 (Sogatella furcifera, UniProt V5T6E3)
In short: as §1

SfurOBP3 = SfurOBP3 (Sogatella furcifera, UniProt V5T818); details: for Fluorescence competitive binding assay, fluorescence intensity: OBP3, three replicate columns
In short: as §1

Chain of SfurOBP1 (V5T8N5 entry or part of it): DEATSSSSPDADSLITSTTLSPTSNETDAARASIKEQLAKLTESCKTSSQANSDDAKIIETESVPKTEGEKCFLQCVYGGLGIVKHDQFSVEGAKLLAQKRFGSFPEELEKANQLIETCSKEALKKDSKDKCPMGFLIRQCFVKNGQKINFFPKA
Chain of SfurOBP2 (V5T759 entry or part of it): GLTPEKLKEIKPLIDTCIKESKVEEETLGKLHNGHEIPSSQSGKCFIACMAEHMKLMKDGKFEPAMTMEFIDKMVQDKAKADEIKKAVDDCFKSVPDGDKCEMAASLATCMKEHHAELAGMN
Chain of SfurOBP11 (V5T6E3 entry or part of it): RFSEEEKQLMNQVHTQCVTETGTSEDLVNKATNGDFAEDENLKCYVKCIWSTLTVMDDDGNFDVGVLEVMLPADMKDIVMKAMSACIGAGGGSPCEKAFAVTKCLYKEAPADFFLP
Chain of SfurOBP3 (V5T818 entry or part of it): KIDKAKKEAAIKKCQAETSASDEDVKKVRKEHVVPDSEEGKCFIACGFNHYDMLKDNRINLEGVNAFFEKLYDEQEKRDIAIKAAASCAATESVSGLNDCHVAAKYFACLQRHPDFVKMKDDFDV

IC50 (SfurOBP2; SfurOBP2, protein and 1-NPN both 2.0 µM, competitor 2-20 µM, read-out: IC50): > 20 µM | Fluorescence competitive binding assay, OBP2 (raw fluorescence reading) (SfurOBP2; ligand concentration 2 (unit not given), replicate column 1 of 3): 17977 | Fluorescence competitive binding assay, OBP2 (raw fluorescence reading) (SfurOBP2; ligand concentration 2 (unit not given), replicate column 2 of 3): 18256 | Fluorescence competitive binding assay, OBP2 (raw fluorescence reading) (SfurOBP2; ligand concentration 2 (unit not given), replicate column 3 of 3): 18222 | Fluorescence competitive binding assay, OBP2 (raw fluorescence reading) (SfurOBP2; ligand concentration 4 (unit not given), replicate column 1 of 3): 21586 | Fluorescence competitive binding assay, OBP2 (raw fluorescence reading) (SfurOBP2; ligand concentration 4 (unit not given), replicate column 2 of 3): 19639 | Fluorescence competitive binding assay, OBP2 (raw fluorescence reading) (SfurOBP2; ligand concentration 4 (unit not given), replicate column 3 of 3): 16260 | Fluorescence competitive binding assay, OBP2 (raw fluorescence reading) (SfurOBP2; ligand concentration 6 (unit not given), replicate column 1 of 3): 18208 | Fluorescence competitive binding assay, OBP2 (raw fluorescence reading) (SfurOBP2; ligand concentration 6 (unit not given), replicate column 2 of 3): 18064 | Fluorescence competitive binding assay, OBP2 (raw fluorescence reading) (SfurOBP2; ligand concentration 6 (unit not given), replicate column 3 of 3): 15812 | Fluorescence competitive binding assay, OBP2 (raw fluorescence reading) (SfurOBP2; ligand concentration 8 (unit not given), replicate column 1 of 3): 16946 | Fluorescence competitive binding assay, OBP2 (raw fluorescence reading) (SfurOBP2; ligand concentration 8 (unit not given), replicate column 2 of 3): 12445 | Fluorescence competitive binding assay, OBP2 (raw fluorescence reading) (SfurOBP2; ligand concentration 8 (unit not given), replicate column 3 of 3): 14953 | Fluorescence competitive binding assay, OBP2 (raw fluorescence reading) (SfurOBP2; ligand concentration 10 (unit not given), replicate column 1 of 3): 16387 | Fluorescence competitive binding assay, OBP2 (raw fluorescence reading) (SfurOBP2; ligand concentration 10 (unit not given), replicate column 2 of 3): 15939 | Fluorescence competitive binding assay, OBP2 (raw fluorescence reading) (SfurOBP2; ligand concentration 10 (unit not given), replicate column 3 of 3): 15218 | Fluorescence competitive binding assay, OBP2 (raw fluorescence reading) (SfurOBP2; ligand concentration 12 (unit not given), replicate column 1 of 3): 16171 | Fluorescence competitive binding assay, OBP2 (raw fluorescence reading) (SfurOBP2; ligand concentration 12 (unit not given), replicate column 2 of 3): 15043 | Fluorescence competitive binding assay, OBP2 (raw fluorescence reading) (SfurOBP2; ligand concentration 12 (unit not given), replicate column 3 of 3): 14391 | Fluorescence competitive binding assay, OBP2 (raw fluorescence reading) (SfurOBP2; ligand concentration 14 (unit not given), replicate column 1 of 3): 14286 | Fluorescence competitive binding assay, OBP2 (raw fluorescence reading) (SfurOBP2; ligand concentration 14 (unit not given), replicate column 2 of 3): 13952 | Fluorescence competitive binding assay, OBP2 (raw fluorescence reading) (SfurOBP2; ligand concentration 14 (unit not given), replicate column 3 of 3): 14683 | Fluorescence competitive binding assay, OBP2 (raw fluorescence reading) (SfurOBP2; ligand concentration 16 (unit not given), replicate column 1 of 3): 13014 | Fluorescence competitive binding assay, OBP2 (raw fluorescence reading) (SfurOBP2; ligand concentration 16 (unit not given), replicate column 2 of 3): 12749 | Fluorescence competitive binding assay, OBP2 (raw fluorescence reading) (SfurOBP2; ligand concentration 16 (unit not given), replicate column 3 of 3): 13096 | Fluorescence competitive binding assay, OBP2 (raw fluorescence reading) (SfurOBP2; ligand concentration 18 (unit not given), replicate column 1 of 3): 12746 | Fluorescence competitive binding assay, OBP2 (raw fluorescence reading) (SfurOBP2; ligand concentration 18 (unit not given), replicate column 2 of 3): 12759 | Fluorescence competitive binding assay, OBP2 (raw fluorescence reading) (SfurOBP2; ligand concentration 18 (unit not given), replicate column 3 of 3): 12788 | Fluorescence competitive binding assay, OBP2 (raw fluorescence reading) (SfurOBP2; ligand concentration 20 (unit not given), replicate column 1 of 3): 13087 | Fluorescence competitive binding assay, OBP2 (raw fluorescence reading) (SfurOBP2; ligand concentration 20 (unit not given), replicate column 2 of 3): 12766 | Fluorescence competitive binding assay, OBP2 (raw fluorescence reading) (SfurOBP2; ligand concentration 20 (unit not given), replicate column 3 of 3): 13106 | Fluorescence competitive binding assay, fluorescence intensity (SfurOBP1; ligand concentration 2 (μM)): 7624 and 6465 and 8545 | Fluorescence competitive binding assay, fluorescence intensity (SfurOBP1; ligand concentration 4 (μM)): 7313 and 7318 and 7353 | Fluorescence competitive binding assay, fluorescence intensity (SfurOBP1; ligand concentration 6 (μM)): 7143 and 7275 and 7922 | Fluorescence competitive binding assay, fluorescence intensity (SfurOBP1; ligand concentration 8 (μM)): 7358 and 7784 and 8873 | Fluorescence competitive binding assay, fluorescence intensity (SfurOBP1; ligand concentration 10 (μM)): 7141 and 7560 and 7926 | Fluorescence competitive binding assay, fluorescence intensity (SfurOBP1; ligand concentration 12 (μM)): 7810 and 7463 and 8566 | Fluorescence competitive binding assay, fluorescence intensity (SfurOBP1; ligand concentration 14 (μM)): 7736 and 8413 and 7236 | Fluorescence competitive binding assay, fluorescence intensity (SfurOBP1; ligand concentration 16 (μM)): 8777 and 6935 and 7055 | Fluorescence competitive binding assay, fluorescence intensity (SfurOBP1; ligand concentration 18 (μM)): 9193 and 9578 and 9152 | Fluorescence competitive binding assay, fluorescence intensity (SfurOBP1; ligand concentration 20 (μM)): 11048 and 9816 and 8594 | IC50 (SfurOBP1; SfurOBP1, protein and 1-NPN both 2.0 µM, competitor 2-20 µM, read-out: IC50): > 20 µM | IC50 (SfurOBP11; SfurOBP11, protein and 1-NPN both 2.0 µM, competitor 2-20 µM, read-out: IC50): > 20 µM | Fluorescence intensity, fluorescence competitive binding assay, OBP11 (SfurOBP11; ligand concentration 2, replicate 1): 24217 | Fluorescence intensity, fluorescence competitive binding assay, OBP11 (SfurOBP11; ligand concentration 2, replicate 2): 24290 | Fluorescence intensity, fluorescence competitive binding assay, OBP11 (SfurOBP11; ligand concentration 2, replicate 3): 24783 | Fluorescence intensity, fluorescence competitive binding assay, OBP11 (SfurOBP11; ligand concentration 4, replicate 1): 24290 | Fluorescence intensity, fluorescence competitive binding assay, OBP11 (SfurOBP11; ligand concentration 4, replicate 2): 24322 | Fluorescence intensity, fluorescence competitive binding assay, OBP11 (SfurOBP11; ligand concentration 4, replicate 3): 23442 | Fluorescence intensity, fluorescence competitive binding assay, OBP11 (SfurOBP11; ligand concentration 6, replicate 1): 24952 | Fluorescence intensity, fluorescence competitive binding assay, OBP11 (SfurOBP11; ligand concentration 6, replicate 2): 22901 | Fluorescence intensity, fluorescence competitive binding assay, OBP11 (SfurOBP11; ligand concentration 6, replicate 3): 24534 | Fluorescence intensity, fluorescence competitive binding assay, OBP11 (SfurOBP11; ligand concentration 8, replicate 1): 24078 | Fluorescence intensity, fluorescence competitive binding assay, OBP11 (SfurOBP11; ligand concentration 8, replicate 2): 21947 | Fluorescence intensity, fluorescence competitive binding assay, OBP11 (SfurOBP11; ligand concentration 8, replicate 3): 24599 | Fluorescence intensity, fluorescence competitive binding assay, OBP11 (SfurOBP11; ligand concentration 10, replicate 1): 22957 | Fluorescence intensity, fluorescence competitive binding assay, OBP11 (SfurOBP11; ligand concentration 10, replicate 2): 24005 | Fluorescence intensity, fluorescence competitive binding assay, OBP11 (SfurOBP11; ligand concentration 10, replicate 3): 23087 | Fluorescence intensity, fluorescence competitive binding assay, OBP11 (SfurOBP11; ligand concentration 12, replicate 1): 20961 | Fluorescence intensity, fluorescence competitive binding assay, OBP11 (SfurOBP11; ligand concentration 12, replicate 2): 21769 | Fluorescence intensity, fluorescence competitive binding assay, OBP11 (SfurOBP11; ligand concentration 12, replicate 3): 22579 | Fluorescence intensity, fluorescence competitive binding assay, OBP11 (SfurOBP11; ligand concentration 14, replicate 1): 19736 | Fluorescence intensity, fluorescence competitive binding assay, OBP11 (SfurOBP11; ligand concentration 14, replicate 2): 20687 | Fluorescence intensity, fluorescence competitive binding assay, OBP11 (SfurOBP11; ligand concentration 14, replicate 3): 20422 | Fluorescence intensity, fluorescence competitive binding assay, OBP11 (SfurOBP11; ligand concentration 16, replicate 1): 16888 | Fluorescence intensity, fluorescence competitive binding assay, OBP11 (SfurOBP11; ligand concentration 16, replicate 2): 20499 | Fluorescence intensity, fluorescence competitive binding assay, OBP11 (SfurOBP11; ligand concentration 16, replicate 3): 18999 | Fluorescence intensity, fluorescence competitive binding assay, OBP11 (SfurOBP11; ligand concentration 18, replicate 1): 18870 | Fluorescence intensity, fluorescence competitive binding assay, OBP11 (SfurOBP11; ligand concentration 18, replicate 2): 19005 | Fluorescence intensity, fluorescence competitive binding assay, OBP11 (SfurOBP11; ligand concentration 18, replicate 3): 19199 | Fluorescence intensity, fluorescence competitive binding assay, OBP11 (SfurOBP11; ligand concentration 20, replicate 1): 20952 | Fluorescence intensity, fluorescence competitive binding assay, OBP11 (SfurOBP11; ligand concentration 20, replicate 2): 19127 | Fluorescence intensity, fluorescence competitive binding assay, OBP11 (SfurOBP11; ligand concentration 20, replicate 3): 18042 | Fluorescence competitive binding assay, fluorescence intensity (SfurOBP3; ligand concentration 2): 67563 and 64113 and 67485 | Fluorescence competitive binding assay, fluorescence intensity (SfurOBP3; ligand concentration 4): 70812 and 72838 and 74184 | Fluorescence competitive binding assay, fluorescence intensity (SfurOBP3; ligand concentration 6): 65634 and 64114 and 68940 | Fluorescence competitive binding assay, fluorescence intensity (SfurOBP3; ligand concentration 8): 62878 and 67093 and 68072 | Fluorescence competitive binding assay, fluorescence intensity (SfurOBP3; ligand concentration 10): 60134 and 69541 and 65795 | Fluorescence competitive binding assay, fluorescence intensity (SfurOBP3; ligand concentration 12): 68479 and 64625 and 78735 | Fluorescence competitive binding assay, fluorescence intensity (SfurOBP3; ligand concentration 14): 60140 and 40039 and 67409 | Fluorescence competitive binding assay, fluorescence intensity (SfurOBP3; ligand concentration 16): 38861 and 39269 and 45097 | Fluorescence competitive binding assay, fluorescence intensity (SfurOBP3; ligand concentration 18): 51398 and 59369 and 52474 | Fluorescence competitive binding assay, fluorescence intensity (SfurOBP3; ligand concentration 20): 68555 and 48789 and 43446 | IC50 (SfurOBP3; SfurOBP3, protein and 1-NPN both 2.0 µM, competitor 2-20 µM, read-out: IC50): > 20 µM
Compound: CCCCCCCCCCCCO [lauryl alcohol]
